# Read-outs that look alike come from different tables or passages of the source.
# Legend:
# DnaK [1] = target: T1, DnaK (Escherichia coli, UniProt P0A6Y8); assay: Steady-state multi-parametric surface plasmon resonance at 25 °C with Hsp70 immobilised by amine coupling and ATP (0-20 uM) injected as analyte.; assay type: binding; parameters: recombinant full-length, N-terminal His6 tag (pQE30), expressed in E. coli XL1 Blue; details: SD, n = 3; read-out: KD /µM (± standard deviation)
# Procedure: Association was allowed for 2 min and dissociation was monitored for 8 min.
# (§1) Standard deviations shown represent three
# (§2) independent assays made using separate protein purification batches. Statistical significance of data was
# (§3) Table S2. Comparative ATP binding affinities for the Hsp70 proteins
# (§4) The standard deviations shown in parenthesis were […]
# Target sequence in this assay (P0A6Y8 2-638): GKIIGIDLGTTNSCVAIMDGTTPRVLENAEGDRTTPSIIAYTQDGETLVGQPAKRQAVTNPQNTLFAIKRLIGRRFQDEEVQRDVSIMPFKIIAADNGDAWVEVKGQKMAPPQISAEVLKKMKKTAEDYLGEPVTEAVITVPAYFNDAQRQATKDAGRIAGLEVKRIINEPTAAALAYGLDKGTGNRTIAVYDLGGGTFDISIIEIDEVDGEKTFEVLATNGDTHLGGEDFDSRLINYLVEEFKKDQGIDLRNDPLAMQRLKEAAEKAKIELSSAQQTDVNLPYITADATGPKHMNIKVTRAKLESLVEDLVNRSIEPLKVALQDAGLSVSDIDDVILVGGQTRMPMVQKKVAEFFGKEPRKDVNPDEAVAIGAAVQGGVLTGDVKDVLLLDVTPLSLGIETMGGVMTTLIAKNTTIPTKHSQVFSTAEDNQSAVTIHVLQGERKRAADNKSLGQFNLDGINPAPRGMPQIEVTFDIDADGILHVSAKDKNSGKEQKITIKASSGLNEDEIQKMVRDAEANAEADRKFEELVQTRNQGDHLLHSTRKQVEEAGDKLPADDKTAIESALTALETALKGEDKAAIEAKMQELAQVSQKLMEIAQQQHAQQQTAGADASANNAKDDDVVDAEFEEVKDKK
# KPf [2] = details: read-out: Km (µM), + PfHsp40; SD, n = 3
# Procedure: (§6) Hsp70 proteins at final concentration of 0.4 μM were each incubated for 5 min in buffer HKMD (10 mM HEPES-KOH pH 7.5, 100 mM KCl, 2 mM MgCl2 and 0.5 mM DTT). The reaction was initiated by the addition of ATP at various concentrations (0–5 mM) and samples were analyzed every 30 min for 4 h.
# Standard deviations shown represent three independent assays made using separate protein purification batches.
# validated by one way ANOVA test (p< 0.05 *) and (p<0.01**).
# KPf [3] = details: SD, n = 3
# From the text: as §1, §2, §3, §4
# KPf [4] = assay: ATP binding affinity by MP-SPR, KPf; parameters: species or system E. coli / P. falciparum; details: read-out: ATP KD (± standard deviation), 25 °C, immobilized KPf, ATP analyte 0-20 μM, steady state equilibrium, three independent assays
# Procedure: This assay was conducted at room temperature (25 °C) using a BioNavis Multi-parametric surface plasmon resonance (MP-SPR; BioNavis; Tampere, Finland) spectroscopy system. […] Steady state equilibrium constant data were processed and analyzed using TraceDrawer software version 1.8 (Ridgeview Instruments; Uppsala, Sweden).
# Proteins Vmax (n/mol/min/mg) Km (µM)
# as §1, §2
# KD /µM (± standard deviation)
# as §4
# KPf [5] = details: MP-SPR; for effect of N enrichment of the peptide on affinity of KPf: presence of 5 mM ADP, N-enriched form versus this peptide
# Target sequence in this assay (P11144 405-631 limits assumed): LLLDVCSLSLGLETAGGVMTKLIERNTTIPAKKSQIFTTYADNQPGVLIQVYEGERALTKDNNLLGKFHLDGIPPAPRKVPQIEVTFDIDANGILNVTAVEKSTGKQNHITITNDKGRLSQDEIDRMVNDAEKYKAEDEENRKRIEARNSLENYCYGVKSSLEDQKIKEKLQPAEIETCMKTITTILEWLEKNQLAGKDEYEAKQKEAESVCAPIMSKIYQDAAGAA
# Procedure: The respective affinity of each Hsp70 for model peptide substrate was investigated by MP-SPR. The Hsp70 ligands were immobilized as previously described [36]. […] The analytes were injected at varying concentrations (0, 125 nM, 250 nM, 500 nM, 1000 nM and 2000 nM) over the immobilized ligands (Hsp70s). The analytes were injected at a flow rate of 100 µL/min and association and dissociation were allowed to occur for 10 min. The assay was conducted both in the absence and presence of 5 mM ADP/ATP. Analysis of association and dissociation data was conducted as previously described using TraceDrawer software version 1.8 (Ridgeview Instruments).
# DnaK [6] = target: T1, DnaK; assay: Model peptide substrate binding by MP-SPR, DnaK; parameters: His6 (polyhistidine) (N); made in house; host or cells: E. coli XL1 Blue; details: for effect of asparagine enrichment of the peptide on DnaK's affinity: presence of ADP, N-enriched form versus this peptide; for affinity of DnaK for peptide: peptide 0-2000 nM over immobilized DnaK, presence of ADP (5 mM)
# From the text: (§5) The Hsp70 ligands were immobilized as previously described.
# Target sequence in this assay (P0A6Y8 whole entry): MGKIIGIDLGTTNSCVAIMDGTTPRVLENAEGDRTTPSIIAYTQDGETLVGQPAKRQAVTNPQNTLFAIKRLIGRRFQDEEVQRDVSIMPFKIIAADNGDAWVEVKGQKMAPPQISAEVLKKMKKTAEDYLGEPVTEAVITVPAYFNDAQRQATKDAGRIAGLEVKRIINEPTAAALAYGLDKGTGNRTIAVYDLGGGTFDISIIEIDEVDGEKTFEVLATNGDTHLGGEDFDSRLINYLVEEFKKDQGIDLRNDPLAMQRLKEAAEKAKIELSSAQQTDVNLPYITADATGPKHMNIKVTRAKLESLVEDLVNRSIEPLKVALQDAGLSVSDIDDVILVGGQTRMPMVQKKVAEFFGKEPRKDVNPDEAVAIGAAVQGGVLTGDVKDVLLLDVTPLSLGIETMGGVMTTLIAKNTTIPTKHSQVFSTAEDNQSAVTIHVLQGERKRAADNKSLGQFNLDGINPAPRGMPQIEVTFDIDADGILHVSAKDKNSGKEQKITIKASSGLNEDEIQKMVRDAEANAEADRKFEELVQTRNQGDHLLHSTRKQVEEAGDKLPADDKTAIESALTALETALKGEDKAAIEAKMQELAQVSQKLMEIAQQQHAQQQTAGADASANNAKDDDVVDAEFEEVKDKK
# PfHsp70-1 [7] = assay: Model peptide substrate binding by MP-SPR, PfHsp70-1; parameters: species or system Plasmodium falciparum; details: for affinity of PfHsp70-1 relative to the non-enriched peptide (GFRVVLMYRF, ALLLMYRR): presence of ADP
# PfHsp70-1, sequence (P11144 1-630 limits assumed): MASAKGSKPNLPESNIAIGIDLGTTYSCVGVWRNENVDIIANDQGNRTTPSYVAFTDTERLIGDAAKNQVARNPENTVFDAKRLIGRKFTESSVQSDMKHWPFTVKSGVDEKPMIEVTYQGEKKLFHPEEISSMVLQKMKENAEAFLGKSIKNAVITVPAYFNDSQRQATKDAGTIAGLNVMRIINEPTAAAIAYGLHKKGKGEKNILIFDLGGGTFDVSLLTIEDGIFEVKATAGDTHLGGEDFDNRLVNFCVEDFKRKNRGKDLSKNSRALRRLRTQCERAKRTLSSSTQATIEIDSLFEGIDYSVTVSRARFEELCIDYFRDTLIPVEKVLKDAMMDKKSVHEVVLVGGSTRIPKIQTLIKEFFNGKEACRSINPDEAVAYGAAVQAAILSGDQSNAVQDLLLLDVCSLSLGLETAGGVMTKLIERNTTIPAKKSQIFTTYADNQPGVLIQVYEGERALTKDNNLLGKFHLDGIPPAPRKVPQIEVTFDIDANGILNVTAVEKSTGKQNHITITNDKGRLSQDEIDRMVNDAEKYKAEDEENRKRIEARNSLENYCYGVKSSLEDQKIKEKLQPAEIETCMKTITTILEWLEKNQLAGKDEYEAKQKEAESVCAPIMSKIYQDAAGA
# From the text: as §5
# [8] = Heat stability of secondary structure by far-UV CD; assay type: physicochemical; details: far-UV CD at 222 nm
# Procedure: Spectra was averaged for 15 scans after baseline correction (buffer without recombinant protein). The spectra were deconvoluted to α-helix, β-sheet, β-turn and unordered regions, using the Dichroweb server, (http://dichroweb.cryst.bbk.ac.uk; [37]). The effect of heat stress on the secondary structure of the Hsp70s was investigated by monitoring the spectral changes of each protein at various temperatures (19–95 °C). The folded states of each Hsp70 protein at any given temperature were determined using spectral readings obtained at 222 nm as previously described. In a separate experiment, the analysis of PfAdoMetDC protein co-expressed with the various chaperone sets was conducted by monitoring the CD spectrum at 190–240 nm at 22 °C. The assay was repeated in the presence of PfAdoMetDC substrate, S-adenosylmethionine hydrochloride (SAM), as previously described with minor modifications. Briefly, PfAdoMetDC protein was preincubated in PBS supplemented with 100 μM SAM for 30 min prior to analysis at 25 °C. The resultant spectra were monitored and averaged following baseline correction (100 μM SAM using buffer void of the protein).
# DnaK [9] = target: T1, DnaK; details: MP-SPR
# Target sequence in this assay (P0A6Y8 whole entry): as the sequence (P0A6Y8 whole entry) above
# Procedure: (§7) As ligands, the recombinant Hsp70 proteins were immobilized on the CMD3D 500L chip. The analyte (respective Hsp70 protein) was prepared at various concentrations of 0, 125, 250, 500, 1000 and 2000 nM, respectively and injected at 50 μL/sec onto each channel with immobilized ligands. A reference channel without immobilized protein served as the control for non-specific binding and changes in refractive index. The analysis was conducted either in the absence or presence of 5 mM ATP/ADP. Association was allowed for 2 min, while dissociation was monitored for 8 min. Data analysis was conducted after double referencing by subtraction of both the baseline RU (buffer with ATP/ADP plus BSA as control protein) and RU from the reference channel. Kinetics steady-state equilibrium constant data were processed after concatenating the responses of all five analyte concentrations by global fitting using TraceDrawer software version 1.8 (Ridgeview Instruments).
# [10] = ATPase activity (released inorganic phosphate); assay type: biochemical; details: basal ATPase, 0.4 μM Hsp70, ATP 0-5 mM, buffer HKMD pH 7.5, SD of three independent assays
# Procedure: as §6
# PfAdoMetDC = assay: Co-expression of PfAdoMetDC with supplementary chaperones in E. coli, fold by CD/fluorescence; assay type: cell-based, Plasmodium falciparum; details: co-expression with DnaJ in E. coli BL21 Star (DE3); purified PfAdoMetDC analysed by CD, ANS and intrinsic fluorescence
# Procedure: Briefly, the transformed E. coli BL21 Star (DE3) cells were cultured in LB broth supplemented with 100 μg/mL ampicillin (Sigma Aldrich) to select for pASKIBA3 and 50 μg/mL spectinomycin (Sigma Aldrich), to select for pBB535 and pBB542, respectively. As control, PfAdoMetDC expressed alone (without supplementary chaperones), was expressed in E. coli BL21 StarTM (DE3) cells as previously described [33]. The expression of chaperones was initiated by addition of 1 mM IPTG and at OD600 = 0.2 while the expression of PfAdoMetDC was initiated by addition of 2 ng/mL anhydroxytetracycline (AHT) (IBA GmbH, Göttingen, Germany) at OD600 = 0.7. Cells were incubated for 24 h (37 °C, 250 rpm) from the time of induction with IPTG. The cells were harvested by centrifugation (5000 g, 20 min, 4 °C) and the pellet was resuspended in lysis buffer (100 mM Tris pH 7.5; 300 mM NaCl; 10 mM Imidazole, containing 1 mM aminoethyl benzenesulfonyl fluoride hydrochloride (AEBSF) and 1 mg/mL of lysozyme). […] Purified PfAdoMetDC protein was quantified using the Bradford assay. […] Following Strep-Tactin Sepharose affinity column purification, PfAdoMetDC was analyzed using an Äkta explorer system (Amersham Pharmacia Biotech; Buckinghamshire, UK) fast protein liquid chromatography (FPLC), to determine migration profiles of the protein preparations that were co-expressed with the various chaperones sets. The migration pattern of PfAdoMetDC as determined by Size exclusion chromatography (SEC) was used to infer the compact/relaxed state of its fold. Retention times of the respective protein preparation were determined by SEC at 22 °C in running buffer (50 mM Tris-HCl, pH 7.5, 1 mM DTT, 500 mM NaCl and 0.02% w/v NaN3) using Bio-Select SEC 250-5 column (BioRad) with a fractionation range of 1000–250,000 Da. […] The elution profiles of the protein preparations were determined as peaks obtained at 280 nm using a Spectra Series UV100 spectrophotometer (Thermo Fischer Scientific). […]
# PfHsp70-1 [11] = assay: Self-association of PfHsp70-1 by MP-SPR; assay type: binding, Plasmodium falciparum
# Procedure: as §7
# [12] = 0.2 μM protein in PBS pH 7.5, 19–95 °C
compound,measurement,setting,value
"Nc1ncnc2c1ncn2[C@@H]1O[C@H](COP(=O)(O)OP(=O)(O)OP(=O)(O)O)[C@@H](O)[C@H]1O [ATP, adenosine 5'-triphosphate]",Kd,DnaK [1],83.8 µM
same,Km,KPf [2],25.7 µM
same,Km,KPf [3],29.6 µM
Nc1ncnc2c1ncn2[C@@H]1O[C@H](COP(=O)(O)OP(=O)(O)OP(=O)(O)O)[C@@H](O)[C@H]1O [ATP],Kd,KPf [4],0.38 µM
ALLLMYRR [canonical Hsp70 model peptide substrate],effect of N enrichment of the peptide on affinity of KPf,KPf [5],not enhanced
same,effect of asparagine enrichment of the peptide on DnaK's affinity,DnaK [6],did not enhance
ANNNMYRR,"affinity of PfHsp70-1 relative to the non-enriched peptide (GFRVVLMYRF, ALLLMYRR)",PfHsp70-1 [7],higher affinity
DnaK: recombinant (His)6-tagged Escherichia coli Hsp70 (DnaK),temperature above which the protein rapidly unfolded,[8]; [12],above 45 °C
same,temperature of complete unfolding,[8]; [12],approximately 68 °C
same,Ka,"DnaK [9]; analyte DnaK 0-2000 nM over immobilized DnaK, + 5 mM ATP, global fit",1.38 (±0.08) × 10^2 Ms^−1
same,Ka,"DnaK [9]; analyte DnaK over immobilized DnaK, + 5 mM ADP",1.22 (±0.13) × 10^2 Ms^−1
same,Ka,"DnaK [9]; analyte DnaK over immobilized DnaK, no nucleotide",1.27 (±0.07) × 10^3 Ms^−1
same,Vmax,[10],14.33 (± 1.4) n/mol/min/mg
same,effect of co-produced chaperone on PfAdoMetDC folding,PfAdoMetDC,did not support PfAdoMetDC folding
GFRNNNMYRF,"affinity of PfHsp70-1 relative to the non-enriched peptide (GFRVVLMYRF, ALLLMYRR)",PfHsp70-1 [7],higher affinity
GFRVVLMYRF [canonical Hsp70 model peptide substrate],effect of N enrichment of the peptide on affinity of KPf,KPf [5],not enhanced
same,effect of asparagine enrichment of the peptide on DnaK's affinity,DnaK [6],did not enhance
GroEL: E. coli chaperonin co-expressed as supplementary chaperone,effect of co-produced chaperone on PfAdoMetDC folding,PfAdoMetDC,restoration of the ß-conformation
NRLLTG [canonical Hsp70 model peptide substrate],affinity of DnaK for peptide,DnaK [6],nanomolar range
NRNNTG [asparagine-enriched form of NRLLTG],affinity of PfHsp70-1 for peptide,"PfHsp70-1 [7]; peptide over immobilized PfHsp70-1, presence of ADP, higher than for NRLLTG",nanomolar range
same,affinity of KPf for peptide,"KPf [5]; peptide over immobilized KPf, presence of ADP, higher than for NRLLTG",nanomolar range
same,affinity of DnaK for peptide,DnaK [6],micromolar range
"PfHsp70-1: recombinant Plasmodium falciparum Hsp70-1, cytosol-localized molecular chaperone (PF3D7_0818900)",temperature of complete unfolding,[8]; [12],around 90 °C
same,temperature up to which at least 50% fold is maintained,"[8]; 0.2 μM protein in PBS pH 7.5, 19–95 °C, relative to 19 °C",60 °C
same,temperature range of second unfolding phase,[8]; two-step unfolding pattern,75–90 °C
same,association rate constant (kon),"PfHsp70-1 [11]; analyte PfHsp70-1 0-2000 nM over immobilized PfHsp70-1, + 5 mM ATP",2.14 (±0.04) × 10^4 Ms^−1
same,association rate constant (kon),"PfHsp70-1 [11]; analyte PfHsp70-1 over immobilized PfHsp70-1, + 5 mM ADP",1.00 (±0.17) × 10^2 Ms^−1
same,association rate constant (kon),"PfHsp70-1 [11]; analyte PfHsp70-1 over immobilized PfHsp70-1, no nucleotide",8.51 (±1.20) × 10^3 Ms^−1
same,Vmax,[10],22.45 (± 1.8) n/mol/min/mg
same,effect of co-produced chaperone on PfAdoMetDC folding,PfAdoMetDC,fully folded status

# Reference: article PMC7356358 (Biomolecules, 2020)
